Laboratory results from ChEMBL document CHEMBL1201862, “PubChem BioAssay data set” (2004).
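Five concentrations, 48 hours, 96-well plates. GI50 is the concentration that inhibits growth by half.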 The source made the active and inactive calls. Rule as the data show it: active = GI50 up to about 1.1 µM and inactive = higher.

Columns and labels:
Assay in all cases: NCI tumour cell line growth inhibition, 48 h
SF-295 = test system: SF-295
SN12C = test system: SN12C
SK-MEL-28 = test system: SK-MEL-28
T47D = test system: T47D
BT-549 = test system: BT-549
SNB-75 = test system: SNB-75
NCI-H23 = test system: NCI-H23
CAKI-1 = test system: CAKI-1
COLO 205 = test system: COLO 205
OVCAR-8 = test system: OVCAR-8
K562 = test system: K562
Hs-578T = test system: Hs-578T
OVCAR-4 = test system: OVCAR-4
SW-620 = test system: SW-620
TK-10 = test system: TK-10
OVCAR-5 = test system: OVCAR-5
Malme-3M = test system: Malme-3M
MDA-MB-435 = test system: MDA-MB-435
OVCAR-3 = test system: OVCAR-3
LOX IMVI = test system: LOX IMVI
HCT-15 = test system: HCT-15
ACHN = test system: ACHN
IGROV-1 = test system: IGROV-1
CCRF-CEM = test system: CCRF-CEM
NCI-H460 = test system: NCI-H460
SNB-19 = test system: SNB-19
RPMI-8226 = test system: RPMI-8226
HL-60 = test system: HL-60
HOP-62 = test system: HOP-62
PC-3 = test system: PC-3
HT-29 = test system: HT-29
RXF 393 = test system: RXF 393
MDA-N = test system: MDA-N
SR = test system: SR
DU-145 = test system: DU-145
NCI/ADR-RES = test system: NCI/ADR-RES
EKVX = test system: EKVX
UACC-62 = test system: UACC-62
UO-31 = test system: UO-31
MOLT-4 = test system: MOLT-4
A549 = test system: A549
MCF7 = test system: MCF7
KM12 = test system: KM12
SF-539 = test system: SF-539
M14 = test system: M14
SF-268 = test system: SF-268
UACC-257 = test system: UACC-257
U-251 = test system: U-251
SK-OV-3 = test system: SK-OV-3
MDA-MB-231 = test system: MDA-MB-231
HCT-116 = test system: HCT-116
SK-MEL-5 = test system: SK-MEL-5
NCI-H226 = test system: NCI-H226
SK-MEL-2 = test system: SK-MEL-2
HOP-92 = test system: HOP-92
HCC 2998 = test system: HCC 2998
A498 = test system: A498
786-0 = test system: 786-0
NCI-H522 = test system: NCI-H522

Measured: GI50

CSc1nc(N)c2c(-c3ccccc3)c3c(nc2n1)CCCC3
> 100 µM: HCT-15
inactive: SF-295 > 100 µM | SN12C > 100 µM | SK-MEL-28 > 100 µM | T47D > 100 µM | BT-549 > 100 µM | SNB-75 31.3 µM | NCI-H23 > 100 µM | CAKI-1 > 100 µM | COLO 205 > 100 µM | OVCAR-8 20.8 µM | K562 > 100 µM | Hs-578T 21.5 µM | OVCAR-4 29.6 µM | SW-620 > 100 µM | TK-10 > 100 µM | OVCAR-5 > 100 µM | Malme-3M 82 µM | MDA-MB-435 > 100 µM | OVCAR-3 > 100 µM | LOX IMVI > 100 µM | ACHN > 100 µM | IGROV-1 > 100 µM | CCRF-CEM > 100 µM | NCI-H460 > 100 µM | SNB-19 > 100 µM | RPMI-8226 > 100 µM | HL-60 > 100 µM | HOP-62 98.4 µM | PC-3 > 100 µM | HT-29 > 100 µM | RXF 393 29.7 µM | MDA-N > 100 µM | SR > 100 µM | DU-145 > 100 µM | NCI/ADR-RES 33 µM | EKVX > 100 µM | UACC-62 > 100 µM | UO-31 3.38 µM | MOLT-4 > 100 µM | A549 > 100 µM | MCF7 > 100 µM | KM12 > 100 µM | SF-539 13.4 µM | M14 > 100 µM | SF-268 > 10 µM | UACC-257 > 100 µM | U-251 > 100 µM | SK-OV-3 87.7 µM | MDA-MB-231 > 100 µM | HCT-116 > 100 µM | SK-MEL-5 > 100 µM

CC1=C(C2=C(C)C(=O)C(=O)c3cc(C)ccc32)c2ccc(C)cc2C(=O)C1=O
0.278 µM: HCT-15
active: SF-295 0.194 µM | SN12C 0.197 µM | SK-MEL-28 0.185 µM | T47D 0.249 µM | BT-549 0.19 µM | SNB-75 0.236 µM | NCI-H23 0.208 µM | CAKI-1 0.182 µM | COLO 205 0.269 µM | OVCAR-8 0.245 µM | K562 0.185 µM | Hs-578T 0.318 µM | OVCAR-4 0.221 µM | SW-620 0.255 µM | SK-MEL-2 0.313 µM | TK-10 0.64 µM | OVCAR-5 0.199 µM | Malme-3M 0.215 µM | MDA-MB-435 0.201 µM | HOP-92 0.174 µM | OVCAR-3 0.153 µM | LOX IMVI 0.207 µM | ACHN 0.189 µM | HCC 2998 0.155 µM | IGROV-1 0.282 µM | CCRF-CEM 0.152 µM | NCI-H460 0.243 µM | SNB-19 0.15 µM | RPMI-8226 0.333 µM | HL-60 0.0199 µM | HOP-62 0.451 µM | PC-3 0.298 µM | HT-29 0.277 µM | 786-0 0.318 µM | RXF 393 0.234 µM | MDA-N 0.187 µM | NCI/ADR-RES 0.274 µM | EKVX 0.28 µM | UACC-62 0.191 µM | UO-31 0.178 µM | MOLT-4 0.287 µM | MCF7 0.218 µM | KM12 0.205 µM | SF-539 0.182 µM | M14 0.182 µM | SF-268 0.203 µM | UACC-257 0.193 µM | NCI-H522 0.21 µM | U-251 0.226 µM | MDA-MB-231 0.283 µM | HCT-116 0.333 µM | SK-MEL-5 0.206 µM
inactive: NCI-H226 1.9 µM | A498 1.59 µM | DU-145 1.44 µM | A549 1.7 µM | SK-OV-3 1.45 µM

O=C1/C(=C\c2ccc([N+](=O)[O-])cc2)N(S(=O)(=O)c2ccccc2)c2ncccc21
15.7 µM: HCT-15
inactive: SF-295 28.2 µM | SN12C 16.9 µM | SK-MEL-28 20.7 µM | T47D 13.4 µM | BT-549 18.3 µM | SNB-75 14.5 µM | NCI-H23 13.7 µM | CAKI-1 8.18 µM | COLO 205 19.5 µM | NCI-H226 22.9 µM | OVCAR-8 20.9 µM | K562 3.55 µM | Hs-578T 31.2 µM | SW-620 14.9 µM | TK-10 17.5 µM | Malme-3M 18.2 µM | MDA-MB-435 21.4 µM | OVCAR-3 12.2 µM | LOX IMVI 19.5 µM | ACHN 15.9 µM | IGROV-1 18.3 µM | CCRF-CEM 2.98 µM | NCI-H460 18.7 µM | SNB-19 24.5 µM | RPMI-8226 5.43 µM | HL-60 2.18 µM | HOP-62 18.7 µM | PC-3 14 µM | HT-29 16.6 µM | 786-0 16.5 µM | RXF 393 16.6 µM | MDA-N 19.5 µM | SR 3.33 µM | DU-145 27.5 µM | NCI/ADR-RES 23.9 µM | EKVX > 10 µM | UACC-62 9.23 µM | UO-31 19.3 µM | MOLT-4 3.24 µM | A549 40.2 µM | MCF7 24.7 µM | KM12 20.3 µM | SF-539 24.8 µM | M14 17.4 µM | SF-268 23.1 µM | UACC-257 21.8 µM | NCI-H522 18.3 µM | U-251 18.2 µM | MDA-MB-231 16.1 µM | HCT-116 18.2 µM | SK-MEL-5 16.8 µM
active: SK-OV-3 0.0212 µM
